The record followed here is ChEMBL document CHEMBL3046743, “Synthesis and in vitro antimicrobial evaluation of penta-substituted pyridine derivatives bearing the quinoline nucleus” (2012).

In brackets after ≈: the same amount, converted by molar mass.

Common to all, as to assay type: functional
For test [1], the system named is Candida albicans. Briefly: Antifungal activity against Candida albicans MTCC 227 after 48 hr by broth microdilution method. Conditions: MTCC 227, 48 h. Background: Broth dilution looks for growth in wells or tubes with falling amounts of substance.
In test [2] the test system is Aspergillus fumigatus. Briefly: Antifungal activity against Aspergillus fumigatus MTCC 3008 after 48 hr by broth microdilution method. To be noted: MTCC 3008, 48 h.
For test [3], the system named is Vibrio cholerae. Briefly: Antibacterial activity against Vibrio cholerae MTCC 3906 after 24 hr by broth microdilution method. To be noted: MTCC 3906, 24 h.
In test [4] the test system is Salmonella typhi. In words: Antibacterial activity against Salmonella enterica subsp. enterica serovar Typhi MTCC 98 after 24 hr by broth microdilution method. Conditions: MTCC 98, 24 h.
Test [5] has as its system Escherichia coli. In words: Antibacterial activity against Escherichia coli MTCC 443 after 24 hr by broth microdilution method. To be noted: MTCC 443, 24 h.
Test [6] has as its system Streptococcus pneumoniae. Briefly: Antibacterial activity against Streptococcus pneumoniae MTCC 1936 after 24 hr by broth microdilution method. Conditions: MTCC 1936, 24 h.
In test [7] the test system is Clostridium tetani. Briefly: Antibacterial activity against Clostridium tetani MTCC 449 after 24 hr by broth microdilution method. To be noted: MTCC 449, 24 h.
Test [8] deals with Bacillus subtilis. Briefly: Antibacterial activity against Bacillus subtilis MTCC 441 after 24 hr by broth microdilution method. To be noted: MTCC 441, 24 h.

In the case of `Cc1ccc(Sc2nc(N)c(C#N)c(-c3cc4ccc(C)cc4nc3Cl)c2C#N)cc1`, the MIC – broadly, the lowest concentration found to suppress growth – in test [1] is > 1000 µg/mL; in test [2], > 1000 µg/mL; in test [3] it was 200 µg/mL (≈ 453 µM); in test [4], 250 µg/mL (≈ 566 µM); in test [5], 200 µg/mL (≈ 453 µM); in test [6] it was 200 µg/mL (≈ 453 µM). The MIC in test [7] and in test [8] was 200 µg/mL (≈ 453 µM) in each case.
Regarding `N#Cc1c(N)nc(Sc2ccc(Cl)cc2)c(C#N)c1-c1cc2ccccc2nc1Cl`, the MIC worked out at 1000 µg/mL (≈ 2230 µM) in test [1]; 1000 µg/mL (≈ 2230 µM) in test [2]; 250 µg/mL (≈ 558 µM) in test [3]; 150 µg/mL (≈ 335 µM) in test [4]; 100 µg/mL (≈ 223 µM) in test [5]; 250 µg/mL (≈ 558 µM) in test [6]. Besides, the MIC in test [7] and in test [8] was 250 µg/mL (≈ 558 µM) throughout.
As to `Cc1ccc(Sc2nc(N)c(C#N)c(-c3cc4ccccc4nc3Cl)c2C#N)cc1`, the MIC in test [1] is > 1000 µg/mL; in test [2], > 1000 µg/mL; in test [3], 62.5 µg/mL (≈ 146 µM); in test [4] it was 100 µg/mL (≈ 234 µM); in test [5], 100 µg/mL (≈ 234 µM); in test [6], 200 µg/mL (≈ 467 µM). In addition, the MIC in test [7] and in test [8] was 250 µg/mL (≈ 584 µM) throughout.
Consider `Cc1ccc2nc(Cl)c(-c3c(C#N)c(N)nc(Sc4ccccc4)c3C#N)cc2c1`, for which the minimal inhibitory concentration (MIC) in test [1] is > 1000 µg/mL; in test [2], > 1000 µg/mL; in test [3], 250 µg/mL (≈ 584 µM); in test [4] it was 200 µg/mL (≈ 467 µM); in test [5] it was 200 µg/mL (≈ 467 µM); in test [6] it was 250 µg/mL (≈ 584 µM). Further, the MIC in test [7] and in test [8] was 500 µg/mL (≈ 1170 µM) in each case.
Take `Cc1ccc2nc(Cl)c(-c3c(C#N)c(N)nc(Sc4ccc(Cl)cc4)c3C#N)cc2c1`: the minimum inhibitory concentration (MIC) in test [1] turned out to be 500 µg/mL (≈ 1080 µM); in test [2] it was 500 µg/mL (≈ 1080 µM); in test [3], 200 µg/mL (≈ 433 µM); in test [4], 100 µg/mL (≈ 216 µM); in test [5], 62.5 µg/mL (≈ 135 µM); in test [6] it was 200 µg/mL (≈ 433 µM). The MIC in test [7] was determined as 250 µg/mL (≈ 541 µM); in test [8], 200 µg/mL (≈ 433 µM).
Regarding `Cc1ccc(Sc2nc(N)c(C#N)c(-c3cc4cc(C)ccc4nc3Cl)c2C#N)cc1`, the MIC came to 250 µg/mL (≈ 566 µM) in test [1]; 500 µg/mL (≈ 1130 µM) in test [2]; 500 µg/mL (≈ 1130 µM) in test [3]; 200 µg/mL (≈ 453 µM) in test [4]; 250 µg/mL (≈ 566 µM) in test [5]; 100 µg/mL (≈ 226 µM) in test [6]. Also, the results for the MIC in test [7] and in test [8] were 500 µg/mL (≈ 1130 µM) and 100 µg/mL (≈ 226 µM), respectively.
Consider `COc1ccc2nc(Cl)c(-c3c(C#N)c(N)nc(Sc4ccccc4)c3C#N)cc2c1`, for which the MIC came out at 1000 µg/mL (≈ 2250 µM) in test [1]; 1000 µg/mL (≈ 2250 µM) in test [2]; 500 µg/mL (≈ 1130 µM) in test [3]; 500 µg/mL (≈ 1130 µM) in test [4]; 500 µg/mL (≈ 1130 µM) in test [5]; 250 µg/mL (≈ 563 µM) in test [6]. The MIC is 200 µg/mL (≈ 451 µM) in test [7] and 250 µg/mL (≈ 563 µM) in test [8].
For the molecule `COc1ccc2nc(Cl)c(-c3c(C#N)c(N)nc(Sc4ccc(Cl)cc4)c3C#N)cc2c1`, the minimum inhibitory concentration (MIC) is 1000 µg/mL (≈ 2090 µM) in test [1]; > 1000 µg/mL in test [2]; 200 µg/mL (≈ 418 µM) in test [3]; 200 µg/mL (≈ 418 µM) in test [4]; 200 µg/mL (≈ 418 µM) in test [5]; 250 µg/mL (≈ 523 µM) in test [6]. For the same molecule, the minimal inhibitory concentration (MIC) was 200 µg/mL (≈ 418 µM) in test [7] and 250 µg/mL (≈ 523 µM) in test [8].
In the case of `COc1ccc2nc(Cl)c(-c3c(C#N)c(N)nc(Sc4ccc(C)cc4)c3C#N)cc2c1`, the MIC in test [1] was > 1000 µg/mL; in test [2], > 1000 µg/mL; in test [3], 500 µg/mL (≈ 1090 µM); in test [4], 500 µg/mL (≈ 1090 µM); in test [5], 500 µg/mL (≈ 1090 µM); in test [6], 500 µg/mL (≈ 1090 µM). Also, the MIC in test [7] and in test [8] was 500 µg/mL (≈ 1090 µM) throughout.
Regarding `N#Cc1c(N)nc(Sc2ccccc2)c(C#N)c1-c1cc2cc(Cl)ccc2nc1Cl`, the MIC came to 250 µg/mL (≈ 558 µM) in test [1]; 250 µg/mL (≈ 558 µM) in test [2]; 200 µg/mL (≈ 446 µM) in test [3]; 250 µg/mL (≈ 558 µM) in test [4]; 200 µg/mL (≈ 446 µM) in test [5]; 200 µg/mL (≈ 446 µM) in test [6]. Also, the MIC in test [7] was found to be 250 µg/mL (≈ 558 µM); in test [8], 100 µg/mL (≈ 223 µM).
Regarding `N#Cc1c(N)nc(Sc2ccccc2)c(C#N)c1-c1cc2ccccc2nc1Cl`, the MIC in test [1] amounted to 500 µg/mL (≈ 1210 µM); in test [2], 500 µg/mL (≈ 1210 µM); in test [3], 200 µg/mL (≈ 483 µM); in test [4], 200 µg/mL (≈ 483 µM); in test [5] it was 200 µg/mL (≈ 483 µM); in test [6], 250 µg/mL (≈ 604 µM). Also, the MIC in test [7] amounted to 500 µg/mL (≈ 1210 µM); in test [8], 250 µg/mL (≈ 604 µM).
For `N#Cc1c(N)nc(Sc2ccc(Cl)cc2)c(C#N)c1-c1cc2cc(Cl)ccc2nc1Cl`, the MIC was found to be 200 µg/mL (≈ 414 µM) in test [1]; 500 µg/mL (≈ 1040 µM) in test [2]; 500 µg/mL (≈ 1040 µM) in test [3]; 250 µg/mL (≈ 518 µM) in test [4]; 250 µg/mL (≈ 518 µM) in test [5]; 500 µg/mL (≈ 1040 µM) in test [6]. Also, the MIC in test [7] is 500 µg/mL (≈ 1040 µM); in test [8], 250 µg/mL (≈ 518 µM).
Consider `Cc1ccc(Sc2nc(N)c(C#N)c(-c3cc4cc(Cl)ccc4nc3Cl)c2C#N)cc1`, for which the MIC amounted to 250 µg/mL (≈ 541 µM) in test [1]; 500 µg/mL (≈ 1080 µM) in test [2]; 200 µg/mL (≈ 433 µM) in test [3]; 200 µg/mL (≈ 433 µM) in test [4]; 200 µg/mL (≈ 433 µM) in test [5]; 250 µg/mL (≈ 541 µM) in test [6]. The MIC in test [7] and in test [8] was 200 µg/mL (≈ 433 µM) throughout.
For `Cc1ccc2cc(-c3c(C#N)c(N)nc(Sc4ccccc4)c3C#N)c(Cl)nc2c1`, the minimum inhibitory concentration (MIC) in test [1] turned out to be 1000 µg/mL (≈ 2340 µM); in test [2], 1000 µg/mL (≈ 2340 µM); in test [3], 250 µg/mL (≈ 584 µM); in test [4], 200 µg/mL (≈ 467 µM); in test [5], 100 µg/mL (≈ 234 µM); in test [6], 100 µg/mL (≈ 234 µM). Also, the MIC in test [7] was found to be 200 µg/mL (≈ 467 µM); in test [8], 100 µg/mL (≈ 234 µM).
On to `Cc1ccc2cc(-c3c(C#N)c(N)nc(Sc4ccc(Cl)cc4)c3C#N)c(Cl)nc2c1`, for which the MIC in test [1] is > 1000 µg/mL; in test [2] it was > 1000 µg/mL; in test [3] it was 500 µg/mL (≈ 1080 µM); in test [4], 500 µg/mL (≈ 1080 µM); in test [5], 500 µg/mL (≈ 1080 µM); in test [6], 250 µg/mL (≈ 541 µM). Moreover, the MIC in test [7] and in test [8] was 250 µg/mL (≈ 541 µM) in each case.
Consider `CC1(C)S[C@@H]2[C@H](NC(=O)[C@H](N)c3ccccc3)C(=O)N2[C@H]1C(=O)O` [AMPICILLIN], for which the MIC in test [3] is 100 µg/mL (≈ 286 µM); in test [4], 100 µg/mL (≈ 286 µM); in test [5] it was 100 µg/mL (≈ 286 µM); in test [6] it was 100 µg/mL (≈ 286 µM); in test [7], 250 µg/mL (≈ 715 µM); in test [8] it was 250 µg/mL (≈ 715 µM).
On to `COC1=CC(=O)C[C@@H](C)[C@]12Oc1c(Cl)c(OC)cc(OC)c1C2=O` [GRISEOFULVIN], for which the MIC is 100 µg/mL (≈ 283 µM) in test [1] and 500 µg/mL (≈ 1420 µM) in test [2].
`CCn1cc(C(=O)O)c(=O)c2cc(F)c(N3CCNCC3)cc21` [NORFLOXACIN]: the MIC in test [3] was determined as 10 µg/mL (≈ 31.3 µM); in test [4] it was 10 µg/mL (≈ 31.3 µM); in test [5], 10 µg/mL (≈ 31.3 µM); in test [6], 10 µg/mL (≈ 31.3 µM); in test [7] it was 50 µg/mL (≈ 157 µM); in test [8], 100 µg/mL (≈ 313 µM).
